Data set [1] in a line: Hydrogen peroxide scavenging activity (HPSA). In kind it is biochemical. The note with it: antioxidant activity, H2O2 scavenging, 10 min at 37 °C, mean ± SD of triplicates. As for the experimental part: The Manolov et al. method was used to assess the hydrogen peroxide scavenging capability. A 43 mM solution of H2O2 was prepared in potassium phosphate buffer solution (0.2 M, pH 7.4). The analysis of the samples was carried out as follows: in test tubes, 0.6 mL H2O2 (43 mM), 1 mL sample or reference compounds with different concentrations (20–1000 µg/mL), and 2.4 mL potassium phosphate buffer solution were mixed. The mixture was stirred and incubated in the dark for 10 min at 37 °C. Absorbance was measured at 230 nm with a spectrophotometer (Camspec M508, Leeds, UK) against a blank solution containing phosphate buffer and H2O2 without the sample. Ascorbic acid and quercetin were used as reference compounds. The percentage HPSA of the samples was evaluated by comparing with a blank sample and calculated using the following formula: I,%(HPSA)=Ablank−(ATS−ACS)/Ablank×100 where Ablank is the absorbance of the blank sample, ACS is the absorbance of the control sample, and ATS is the absorbance of the test sample.
(§1) All of the analyses were made in triplicates. Data were expressed as mean ± SD. The level of significance was set at p < 0.05. The mean IC50 value was estimated based on three replicates by interpolating the graphical dependence of activity on concentration. Statistical program SPSS 19.0 software was used for data analysis by one-way ANOVA followed by Duncan’s post hoc test to evaluate differences between mean values of activities (SPSS Inc., Chicago, IL, USA).

The next data set addresses human albumin (Homo sapiens, UniProt P02768). Nature of the data set: Inhibition of albumin denaturation (IAD). In kind it is biochemical. The note with it: heated at 70 °C for 15 min, mean ± SD of triplicates. As for the experimental part:
In vitro analysis of anti-inflammatory activity was assessed as inhibition of albumin denaturation (IAD). The analysis was performed according Manolov et al. method. The experiment was performed with human albumin. The solution of albumin (1%) was prepared in distilled water (pH 7.4). The tested and the reference compounds were dissolved firstly in PBS resulting in 1000 μg/mL stock solutions. Then a series of working solutions with different concentrations (20–500 μg/mL) in PBS were prepared. The reaction mixture was containing 2 mL test sample/reference of different concentrations and 1 mL albumin (1%). The mixture was incubated at 37 °C for 15 min and then heated at 70 °C for 15 min in water bath. After cooling, the turbidity was measured at 660 nm with a spectrophotometer (Camspec M508, Leeds, UK). Ibuprofen and flurbiprofen were used as reference compounds. The experiment was performed three times. Percentage inhibition of albumin denaturation (IAD) was calculated against the control. The control sample is albumin with the same concentration dissolved in distilled water. %IAD=Ablank−Asample/Ablank×100
as §1

The target in another data set is T1, bovine trypsin (Bos taurus, UniProt P00760).
T1 sequence (P00760 24-246): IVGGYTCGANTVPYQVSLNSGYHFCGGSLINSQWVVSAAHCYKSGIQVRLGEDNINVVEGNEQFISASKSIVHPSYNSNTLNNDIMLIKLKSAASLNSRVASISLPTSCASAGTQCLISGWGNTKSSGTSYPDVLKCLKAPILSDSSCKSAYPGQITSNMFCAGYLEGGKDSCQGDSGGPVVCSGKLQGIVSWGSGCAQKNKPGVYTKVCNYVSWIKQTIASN
Briefly: Antitryptic activity (ATA). It is filed as biochemical. The note with it: human albumin as substrate, mean ± SD of triplicates. The protocol:
This method is known also as an in vitro anti-arthritic activity. The analysis was performed according to the method of Oyedapo and Femurewa with minor modification as described by Manolov et al.. The reaction mixture was containing 2 mL 0.06 mg/mL bovine trypsin, 1 mL Tris-HCl buffer (20 mM, pH 7.4) and 1 mL test sample or reference (in methanol) of different concentrations (20-1000 μg/mL). The mixture was incubated at 37 °C for 5 min. Then 1 mL of human albumin (4% v/v) was added. The mixture was incubated for an additional 20 min. To the mixture 2 mL of 70% perchloric acid was added for termination of the reaction. The cloudy suspension was cooled and centrifuged at 5000 rpm for 20 min. The absorbance of the supernatant was measured at 280 nm with a spectrophotometer ([…], UK) against control solution. The control solution was sample or reference in methanol with different concentrations. Ibuprofen and flurbiprofen were used as reference compounds. The analysis was performed three times. The percentage of antitryptic activity (ATA) of the samples was evaluated by comparing with a blank sample. The blank sample is prepared as the test sample but with a small exception-perchloric acid is added before albumin. %ATA=Ablank-ATS-ACS/Ablank×100 where Ablank is the absorbance of the blank sample, ACS is the absorbance of the control solution (test sample in different concentrations) and ATS is the absorbance of the test samples. All of the analyses were made in triplicates. Data were expressed as mean ± SD. The level of significance was set at p < 0.05. The mean IC50 value was estimated based on three replicates by interpolating the graphical dependence of activity on concentration. Statistical program SPSS 19.0 software was used for data analysis by one-way ANOVA followed by Duncan's post hoc test to evaluate differences between mean values of activities (SPSS Inc., Chicago, IL, USA).

Data set [2] in a line: Experimental determination of lipophilicity (RM), reversed-phase thin-layer chromatography. It is filed as physicochemical. Particulars: dimensionless, from thin-layer chromatography Rf. The text has this: Lipophilicity can be assessed through either calculation or experimental methods. In our study, we determined the lipophilicity of the resulting flurbiprofen derivatives using a practical approach, employing reversed-phase thin-layer chromatography, a technique previously reported by Hadjipavlou-Litina.
The method employed for assessing the lipophilicity of flurbiprofen derivatives followed the procedure outlined by Hadjipavlou-Litina.

The next data set concerns rats. Briefly: Prediction of acute rat toxicity by GUSAR software. Particulars: from predicted rat LD50, IV.

SMILES strings stand for the structures. Where two headings read alike, the source gives them in different places.

The IC50 is the concentration at which inhibition is half-maximal.

Sequence of human albumin (P02768 25-609): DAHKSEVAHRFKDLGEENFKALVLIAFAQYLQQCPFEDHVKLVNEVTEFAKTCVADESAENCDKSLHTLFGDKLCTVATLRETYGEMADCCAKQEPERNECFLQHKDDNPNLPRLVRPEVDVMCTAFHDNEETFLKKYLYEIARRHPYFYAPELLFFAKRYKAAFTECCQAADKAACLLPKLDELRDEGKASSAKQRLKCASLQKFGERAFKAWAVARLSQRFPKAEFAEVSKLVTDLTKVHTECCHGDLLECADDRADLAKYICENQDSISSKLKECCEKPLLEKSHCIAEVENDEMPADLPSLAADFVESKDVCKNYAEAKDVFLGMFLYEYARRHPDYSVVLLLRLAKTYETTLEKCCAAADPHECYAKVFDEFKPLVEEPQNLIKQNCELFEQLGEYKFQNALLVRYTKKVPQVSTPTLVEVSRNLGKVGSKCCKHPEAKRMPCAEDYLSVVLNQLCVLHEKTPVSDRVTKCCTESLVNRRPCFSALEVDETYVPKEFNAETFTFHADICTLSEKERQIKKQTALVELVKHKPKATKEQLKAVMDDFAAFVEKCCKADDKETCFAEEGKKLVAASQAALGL

As for `O=C1O[C@H]([C@@H](O)CO)C(O)=C1O` [AA, ascorbic acid], the IC50 in data set [1] stood at 141 ± 2 µM; in data set [1] (listed as ascorbic acid), 141 µM.
With `CC(C(=O)NCCc1ccccc1)c1ccc(-c2ccccc2)c(F)c1` (centres unmarked) [Compound 4a, 2-(2-fluoro-[1,1′-biphenyl]-4-yl)-N-phenethylpropanamide], the IC50 in data set [1] stood at 223 ± 6 µM; at human albumin (read-out: IAD IC50 ± SD), 198 ± 2.3 µM; against bovine trypsin it was 2260 ± 73 µM. Moreover, in data set [2], the “RM ± SD” value is on record as 1.24 ± 0.02.
For the compound `COc1cccc(CCNC(=O)C(C)c2ccc(-c3ccccc3)c(F)c2)c1` (centres unmarked) [Compound 4b, 2-(2-fluoro-[1,1′-biphenyl]-4-yl)-N-(3-methoxyphenethyl)propanamide], the IC50 is 201 ± 3.3 µM in data set [1], 188 ± 3 µM on human albumin (read-out: IAD IC50 ± SD) and 208 ± 15 µM on bovine trypsin. Moreover, the “RM ± SD” value in data set [2] is listed as 1.13 ± 0.02.
For `COc1ccc(CCNC(=O)C(C)c2ccc(-c3ccccc3)c(F)c2)cc1` (centres unmarked) [Compound 4c, 2-(2-fluoro-[1,1′-biphenyl]-4-yl)-N-(4-methoxyphenethyl)propanamide], in that order: 144 ± 10 µM, 196.9 ± 0.5 µM, 203 ± 14 µM and 1.21 ± 0.02.
For `COc1ccc(CCNC(=O)C(C)c2ccc(-c3ccccc3)c(F)c2)cc1OC` (centres unmarked) [Compound 4d, N-(3,4-dimethoxyphenethyl)-2-(2-fluoro-[1,1′-biphenyl]-4-yl)propanamide], in that order: 199.5 ± 1.3 µM, 173.74 ± 0.13 µM, 215 ± 5 µM and 1.33 ± 0.02.
In the case of `CC(C(=O)NCCc1cccc(Cl)c1)c1ccc(-c2ccccc2)c(F)c1` (centres unmarked) [Compound 4e, N-(3-chlorophenethyl)-2-(2-fluoro-[1,1′-biphenyl]-4-yl)propanamide], the IC50 in data set [1] is 199 ± 9 µM; on human albumin (read-out: IAD IC50 ± SD) it was 193 ± 2.2 µM; at bovine trypsin, 198 ± 14 µM. The “RM ± SD” value in data set [2] is 1.41 ± 0.03. The “toxicity relative to flurbiprofen, intravenous” value in the data set on rats is reported as “four times greater toxicity than flurbiprofen”.
For `CC(C(=O)O)c1ccc(-c2ccccc2)c(F)c1` (centres unmarked) [Flu, flurbiprofen], the IC50 in data set [1] is 1160 ± 64 µM; against human albumin (IAD IC50 ± SD), 339 µM; against bovine trypsin, 441 ± 36 µM. Further, in data set [2], the “RM ± SD” value stood at 1.37 ± 0.02.
Turning to `CC(C)Cc1ccc(C(C)C(=O)O)cc1` (centres unmarked) [Ibu, ibuprofen, reference compound], the IC50 in data set [1] stood at 618 ± 25 µM; at bovine trypsin, 1260 ± 44 µM. Moreover, the “RM ± SD” value in data set [2] amounted to 1.11 ± 0.01.
On to `O=c1c(O)c(-c2ccc(O)c(O)c2)oc2cc(O)cc(O)c12` [Qrc, quercetin], for which the IC50 came to 229 ± 6 µM in data set [1] and 229 µM in data set [1] (listed as quercetin).
